Data on 14 molecules can be found in patent US20070161807A1, “Method for manufacturing optically pure coumaryl amino acids and the novel coumaryl aminoacids thus obtained” (INSERM (INSTITUT NATIONAL DE LA SANT'E ET DE LA RECHERCHE …, priority 2004, published 2007).

A short description of this data set: Physicochemical properties: absorption and fluorescence (Table 1). The conditions noted are these: for Abs. (nm): absorption wavelength; for Abs. (nm) / Em. (nm): determined in 95% ethanol; for Em. (nm): emission wavelength.

For `COc1cc(O)c2c(C[C@H](N)C(=O)O)cc(=O)oc2c1.O=C(O)C(F)(F)F` [Example 12, (1S)-1-carboxy-2-(5-hydroxy, 7-methoxy-2-oxo-2H-chromen-4-yl)-ethyl ammonium trifluoroacetate], the QY quantum yield was 0.50, the “ε (cm^−1 M^−1) extinction coefficient” value is 6800 cm⁻¹ M⁻¹, the “Abs. (nm)” value was 329 nm and the “Em. (nm)” value is on record as 421 nm.
Consider `COc1ccc2c(C[C@@H](N)C(=O)O)cc(=O)oc2c1.O=C(O)C(F)(F)F` [Example 8, (1R)-1-carboxy-2-(7-methoxy-2-oxo-2H-chromen-4-yl)-ethyl ammonium trifluoroacetate], for which the QY quantum yield is given as 0.15, the “ε (cm^−1 M^−1) extinction coefficient” value stood at 14000 cm⁻¹ M⁻¹, the “Abs. (nm)” value is listed as 323 nm and the “Em. (nm)” value turned out to be 386 nm.
`N[C@@H](Cc1ccc(O)cc1)C(=O)O` [Y, tyrosine, reference compound]: the QY quantum yield stood at 0.13, the “ε (cm^−1 M^−1) extinction coefficient” value was 1400 cm⁻¹ M⁻¹, the “Abs. (nm)” value is given as 274 nm and the “Em. (nm)” value is reported as 303 nm.
In the same order, the values of `COc1cc(O)cc2oc(=O)cc(C[C@H](N)C(=O)O)c12.O=C(O)C(F)(F)F` [Example 13, (1S)-1-carboxy-2-(7-hydroxy, 5-methoxy-2-oxo-2H-chromen-4-yl)-ethyl ammonium trifluoroacetate] are 0.18, 12700 cm⁻¹ M⁻¹, 323 nm and 421 nm.
Take `COc1ccc2c(CC[C@H](N)C(=O)OCc3ccccc3)cc(=O)oc2c1.O=C(O)C(F)(F)F` [Example 17, (1S)-1-benzyloxycarbonyl-3-(7-methoxy-2-oxo-2H-chromen-4-yl)-propyl ammonium trifluoroacetate]: the QY quantum yield was 0.17, the “ε (cm^−1 M^−1) extinction coefficient” value was found to be 14600 cm⁻¹ M⁻¹, the “Abs. (nm)” value was found to be 322 nm and the “Em. (nm)” value amounted to 381 nm.
As for `N[C@@H](Cc1cc(=O)oc2cc(O)c(Cl)cc12)C(=O)O.O=C(O)C(F)(F)F` [Example 10, (1S)-1-carboxy-2-(6-chloro, 7-hydroxy-2-oxo-2H-chromen-4-yl)-ethyl ammonium trifluoroacetate], the QY quantum yield is recorded as 0.54, the “ε (cm^−1 M^−1) extinction coefficient” value is 10300 cm⁻¹ M⁻¹, the “Abs. (nm)” value came out at 331 nm and the “Em. (nm)” value is on record as 465 nm.
Regarding `COc1ccc2c(C[C@H](N)C(=O)O)cc(=O)oc2c1.CS(=O)(=O)O` [Example 7, (1S)-1-carboxy-2-(7-methoxy-2-oxo-2H-chromen-4-yl)-ethyl ammonium methanesulfonate], the QY quantum yield stood at 0.18, the “ε (cm^−1 M^−1) extinction coefficient” value was determined as 12000 cm⁻¹ M⁻¹, the “Abs. (nm)” value was 324 nm and the “Em. (nm)” value amounted to 383 nm.
With `N[C@@H](Cc1cc(=O)oc2cc(O)cc(O)c12)C(=O)O.O=C(O)C(F)(F)F` [Example 15, (1S)-1-carboxy-2-(5,7-dihydroxy-2-oxo-2H-chromen-4-yl)-ethyl ammonium trifluoroacetate], the “ε (cm^−1 M^−1) extinction coefficient” value amounted to 11800 cm⁻¹ M⁻¹, the “Abs. (nm)” value is reported as 327 nm and the “Em. (nm)” value is on record as 463 nm.
In the case of `CCOc1ccc2c(C[C@H](N)C(=O)O)cc(=O)oc2c1.O=C(O)C(F)(F)F` [Example 11, (1S)-1-carboxy-2-(7-ethoxy-2-oxo-2H-chromen-4-yl)-ethyl ammonium trifluoroacetate], the QY quantum yield stood at 0.17, the “ε (cm^−1 M^−1) extinction coefficient” value was determined as 13300 cm⁻¹ M⁻¹, the “Abs. (nm)” value is listed as 325 nm and the “Em. (nm)” value was 387 nm.
Turning to `N[C@@H](Cc1cc(=O)oc2cc(O)ccc12)C(=O)O.O=C(O)C(F)(F)F` [Example 6, (1S)-1-carboxy-2-(7-hydroxy-2-oxo-2H-chromen-4-yl)-ethyl ammonium trifluoroacetate], the QY quantum yield was 0.49, the “ε (cm^−1 M^−1) extinction coefficient” value is 9000 cm⁻¹ M⁻¹, the “Abs. (nm)” value was found to be 329 nm and the “Em. (nm)” value is reported as 464 nm.
On to `COc1cc2oc(=O)cc(C[C@H](N)C(=O)O)c2cc1OC.O=C(O)C(F)(F)F` [Example 9, (1S)-1-carboxy-2-(6,7-dimethoxy-2-oxo-2H-chromen-4-yl)-ethyl ammonium trifluoroacetate], for which the QY quantum yield was found to be 0.60, the “ε (cm^−1 M^−1) extinction coefficient” value stood at 12000 cm⁻¹ M⁻¹, the “Abs. (nm)” value was found to be 345 nm and the “Em. (nm)” value was found to be 445 nm.
With `N[C@@H](Cc1c[nH]c2ccccc12)C(=O)O` [W, tryptophan, reference compound], the QY quantum yield stood at 0.12, the “ε (cm^−1 M^−1) extinction coefficient” value was determined as 5300 cm⁻¹ M⁻¹, the “Abs. (nm)” value worked out at 278 nm and the “Em. (nm)” value is given as 352 nm.
For the molecule `COc1ccc2c(CC[C@H](N)C(=O)O)cc(=O)oc2c1.O=C(O)C(F)(F)F` [Example 16, (1S)-1-carboxy-3-(7-methoxy-2-oxo-2H-chromen-4-yl)-propyl ammonium trifluoroacetate], the QY quantum yield stood at 0.21, the “ε (cm^−1 M^−1) extinction coefficient” value is 12500 cm⁻¹ M⁻¹, the “Abs. (nm)” value is 321 nm and the “Em. (nm)” value is 380 nm.
`COc1cc(OC)c2c(C[C@H](N)C(=O)O)cc(=O)oc2c1.O=C(O)C(F)(F)F` [Example 14, (1S)-1-carboxy-2-(5,7-dimethoxy-2-oxo-2H-chromen-4-yl)-ethyl ammonium trifluoroacetate]: the QY quantum yield is listed as 0.39, the “ε (cm^−1 M^−1) extinction coefficient” value amounted to 11500 cm⁻¹ M⁻¹, the “Abs. (nm)” value stood at 324 nm and the “Em. (nm)” value was determined as 419 nm.
